Experimental data as given in PubChem BioAssay AID248 (DTP/NCI, 2004).
“And” between values parts separate entries of the source, which are not always exact repeats. Equal values may be shown once. Toxic doses and inconclusive results are not listed. No stated cut-off is given here; in the data, active means T/C of 150% or more; inactive means T/C below 125%.

System: L1210 leukemia ip in BDF1 mice, survival T/C
Experiment: NCI In Vivo Anticancer Drug Screen. Data for tumor model L1210 Leukemia (intraperitoneal) in B6D2F1 (BDF1) mice
Details: endpoint: mean survival time, higher = longer survival
Procedure, shortened: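 Tumor cells were implanted, animals were treated, and survival was followed. The result divides the treated measurement by the vehicle-control measurement.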

[1] = dose: 100.0 mg/kg/injection, schedule: Q01DX009 (ip), vehicle: saline sonified
[2] = dose: 200.0 mg/kg/injection, schedule: Q01DX009 (ip), vehicle: saline sonified
[3] = dose: 50.0 mg/kg/injection, schedule: Q01DX009 (ip), vehicle: saline with Tween-80
[4] = dose: 100.0 mg/kg/injection, schedule: Q01DX009 (ip), vehicle: saline with Tween-80
[5] = dose: 100.0 mg/kg/injection, schedule: Q01DX009 (ip), vehicle: Klucel (hydroxypropylcellulose) (HPC)
[6] = dose: 200.0 mg/kg/injection, schedule: Q01DX009 (ip), vehicle: Klucel (hydroxypropylcellulose) (HPC)
[7] = dose: 400.0 mg/kg/injection, schedule: Q01DX009 (ip), vehicle: Klucel (hydroxypropylcellulose) (HPC)
[8] = dose: 25.0 mg/kg/injection, schedule: Q04DX003 (ip), vehicle: Klucel (hydroxypropylcellulose) (HPC)
[9] = dose: 50.0 mg/kg/injection, schedule: Q04DX003 (ip), vehicle: Klucel (hydroxypropylcellulose) (HPC)
[10] = dose: 100.0 mg/kg/injection, schedule: Q04DX003 (ip), vehicle: Klucel (hydroxypropylcellulose) (HPC)
[11] = dose: 100.0 mg/kg/injection, schedule: Q01DX001 (ip), vehicle: carboxymethylcellulose (CMC)
[12] = dose: 400.0 mg/kg/injection, schedule: Q01DX001 (ip), vehicle: carboxymethylcellulose (CMC)
[13] = dose: 12.5 mg/kg/injection, schedule: Q01DX009 (ip), vehicle: saline
[14] = dose: 25.0 mg/kg/injection, schedule: Q01DX009 (ip), vehicle: saline
[15] = dose: 100.0 mg/kg/injection, schedule: Q04DX002 (ip), vehicle: Klucel (hydroxypropylcellulose) (HPC)
[16] = dose: 200.0 mg/kg/injection, schedule: Q04DX002 (ip), vehicle: Klucel (hydroxypropylcellulose) (HPC)
[17] = dose: 400.0 mg/kg/injection, schedule: Q04DX002 (ip), vehicle: Klucel (hydroxypropylcellulose) (HPC)
[18] = dose: 100.0 mg/kg/injection, schedule: Q01DX001 (ip), vehicle: saline
[19] = dose: 200.0 mg/kg/injection, schedule: Q01DX001 (ip), vehicle: saline
[20] = dose: 400.0 mg/kg/injection, schedule: Q01DX001 (ip), vehicle: saline

Measured: T/C

N#C/C(=C\c1cccnc1)c1ccc(Br)cc1
inactive: [1] 98 % of control | [2] 100 % of control | dose: 400.0 mg/kg/injection, schedule: Q01DX009 (ip), vehicle: saline sonified 93 % of control

CCOC(=O)c1cnn(C(N)=S)c1N
inactive: [3] 95 % of control | [4] 98 % of control | dose: 100.0 mg/kg/injection, schedule: Q04DX003 (ip), vehicle: saline with Tween-80 102 % of control | dose: 200.0 mg/kg/injection, schedule: Q04DX003 (ip), vehicle: saline with Tween-80 105 % of control | dose: 400.0 mg/kg/injection, schedule: Q04DX003 (ip), vehicle: saline with Tween-80 96 % of control

CCOC(=O)c1ccc(NC(=O)Oc2ccccc2C(=O)OCc2ccccc2)cc1
inactive: [5] 98 % of control | [6] 95 % of control | [7] 96 % of control

CCC(=O)OC1(c2ccccc2)CCN(CCC(=O)c2ccccc2)CC1
inactive: [8] 103 % of control | [9] 101 % of control | [10] 95 % of control and 98 % of control

OC(c1cccc(C(O)(C(F)(F)F)C(F)(F)F)c1)(C(F)(F)F)C(F)(F)F
inactive: dose: 5.0 mg/kg/injection, schedule: Q01DX001 (ip), vehicle: saline 97 % of control | dose: 10.0 mg/kg/injection, schedule: Q01DX001 (ip), vehicle: saline 92 % of control | dose: 20.0 mg/kg/injection, schedule: Q01DX001 (ip), vehicle: saline 100 % of control | dose: 40.0 mg/kg/injection, schedule: Q01DX001 (ip), vehicle: saline 93 % of control

C(=N\c1nncs1)/Nc1nncs1
inactive: dose: 40.0 mg/kg/injection, schedule: Q01DX015 (ip), vehicle: carboxymethylcellulose (CMC) 114 % of control and 118 % of control | dose: 50.0 mg/kg/injection, schedule: Q01DX001 (ip), vehicle: carboxymethylcellulose (CMC) 102 % of control | dose: 60.0 mg/kg/injection, schedule: Q01DX015 (ip), vehicle: carboxymethylcellulose (CMC) 94 % of control | dose: 90.0 mg/kg/injection, schedule: Q01DX015 (ip), vehicle: carboxymethylcellulose (CMC) 118 % of control | [11] 98 % of control | dose: 135.0 mg/kg/injection, schedule: Q01DX015 (ip), vehicle: carboxymethylcellulose (CMC) 88 % of control | [12] 124 % of control

CC1(C)NC(=O)NC(=O)C1Br (configuration not stated)
inactive: dose: 100.0 mg/kg/injection, schedule: Q01DX Z (ip), vehicle: methylcellulose (MC) 96 % of control

c1ccc2c3csccc-3nc2c1
inactive: [13] 92 % of control | [14] 98 % of control | dose: 50.0 mg/kg/injection, schedule: Q01DX009 (ip), vehicle: Klucel (hydroxypropylcellulose) (HPC) 94 % of control | dose: 50.0 mg/kg/injection, schedule: Q01DX009 (ip), vehicle: saline 97 % of control | [5] 92 % of control | dose: 100.0 mg/kg/injection, schedule: Q04DX003 (ip), vehicle: acetone 94 % of control and 98 % of control | [6] 92 % of control | dose: 200.0 mg/kg/injection, schedule: Q04DX003 (ip), vehicle: acetone 97 % of control

COc1cc([N+](=O)[O-])cc(C=O)c1O
inactive: [8] 92 % of control | [9] 92 % of control | [10] 96 % of control and 101 % of control

CCCCCCOC(=O)C(O)c1ccccc1 (configuration not stated)
inactive: [3] 95 % of control | [4] 98 % of control | dose: 200.0 mg/kg/injection, schedule: Q01DX009 (ip), vehicle: saline with Tween-80 95 % of control

Cc1ccc(CSC(=N)N)cc1
inactive: [11] 104 % of control

O=C(Nc1ccc(C(=O)O)cc1)Nc1cccc2ccccc12
inactive: [15] 113 % of control | [16] 93 % of control | [17] 97 % of control

CC(CCc1cccc2ccccc12)(C(=O)O)C(=O)O
inactive: [1] 92 % of control | [10] 104 % of control | [2] 104 % of control | dose: 200.0 mg/kg/injection, schedule: Q04DX003 (ip), vehicle: Klucel (hydroxypropylcellulose) (HPC) 100 % of control | dose: 400.0 mg/kg/injection, schedule: Q04DX003 (ip), vehicle: Klucel (hydroxypropylcellulose) (HPC) 94 % of control

CC(C)c1cccc(C(C)C)c1OCCOC(=O)Nc1ccc(F)cc1
inactive: [5] 101 % of control | [6] 117 % of control | [7] 109 % of control

N=C(N)c1ccc(-c2nc3ccc(C(=N)N)cc3[nH]2)cc1
inactive: dose: 12.5 mg/kg/injection, schedule: Q04DX003 (ip), vehicle: saline 100 % of control and 103 % of control | dose: 25.0 mg/kg/injection, schedule: Q04DX003 (ip), vehicle: saline 100 % of control and 103 % of control | dose: 50.0 mg/kg/injection, schedule: Q04DX003 (ip), vehicle: saline 100 % of control and 103 % of control

Cc1ccc(C(C#N)c2ccc(N)cc2)cc1 (configuration not stated)
inactive: dose: 50.0 mg/kg/injection, schedule: Q01DX001 (ip), vehicle: saline 98 % of control | [18] 101 % of control | [19] 101 % of control

CC(=O)CC(=O)CCc1ccccc1.CC(=O)CC(=O)CCc1ccccc1.[Cu]
inactive: dose: 75.0 mg/kg/injection, schedule: Q01DX001 (ip), vehicle: carboxymethylcellulose (CMC) 91 % of control

COC(=O)c1cccc2c1-c1ccccc1C2=O
inactive: dose: 100.0 mg/kg/injection, schedule: Q01DX001 (ip), vehicle: other 92 % of control | dose: 200.0 mg/kg/injection, schedule: Q01DX001 (ip), vehicle: other 88 % of control | dose: 400.0 mg/kg/injection, schedule: Q01DX001 (ip), vehicle: other 97 % of control

O=C(O)c1c(O)c2cc(Cl)ccc2oc1=O
inactive: [18] 98 % of control | [20] 98 % of control

O=c1c(O)c(-c2ccccc2)oc2ccccc12
inactive: [11] 90 % of control | dose: 200.0 mg/kg/injection, schedule: Q01DX001 (ip), vehicle: carboxymethylcellulose (CMC) 97 % of control | [12] 97 % of control

CCC(C)NCCNCCNC(C)CC (configuration not stated)
inactive: dose: 6.25 mg/kg/injection, schedule: Q01DX009 (ip), vehicle: saline 101 % of control | dose: 6.25 mg/kg/injection, schedule: Q04DX003 (ip), vehicle: Klucel (hydroxypropylcellulose) (HPC) 102 % of control | [13] 108 % of control | dose: 12.5 mg/kg/injection, schedule: Q04DX003 (ip), vehicle: Klucel (hydroxypropylcellulose) (HPC) 102 % of control | [14] 90 % of control | [8] 109 % of control

CCCCN1C(=O)C(c2ccccc2)C2(CCN(C)CC2)C1=O (configuration not stated)
inactive: dose: 25.0 mg/kg/injection, schedule: Q01DX001 (ip), vehicle: Klucel (hydroxypropylcellulose) (HPC) 93 % of control | dose: 50.0 mg/kg/injection, schedule: Q01DX001 (ip), vehicle: Klucel (hydroxypropylcellulose) (HPC) 91 % of control | dose: 100.0 mg/kg/injection, schedule: Q01DX001 (ip), vehicle: Klucel (hydroxypropylcellulose) (HPC) 97 % of control and 98 % of control

Cc1ccc(S(=O)NNc2ccccc2)cc1 (configuration not stated)
inactive: [18] 93 % of control | [19] 104 % of control | [20] 93 % of control

CC(=O)OCCc1ccc2c(c1)OCO2
inactive: [15] 97 % of control | [16] 112 % of control | [17] 115 % of control
